Bridge positions count the residues as written; N and C are the ends. Square brackets hold non-standard residues; d marks the D form. Peptide text beside a SMILES is read from it.
The molecules below were run on S. aureus DPC5246. Details: DPC5246, pH 6.8.
Format: cell-based, Staphylococcus aureus
Protocol: Peptides were resuspended at 1000 µM in 50 mM sodium phosphate buffer pH 6.8 and checked for purity by MALDI-TOF-MS. Peptides were serially diluted 1 in 4 to give a dilution series of 250, 62.50, 15.63, 3.91, 0.98 and 0.24 µM and assayed by the agar well diffusion assay described by Ryan et al.[19]. Briefly, 50 µl aliquots of each peptide concentration were plated on a S. aureus DPC5246 indicator plate and the plate incubated at 37 °C. Peptide activity (Minimum Inhibitory Concentration (MIC)) was taken as the lowest concentration of peptide to give a zone of inhibition. All assays were performed in triplicate. The dilution series values were rounded to the nearest whole number to give 1000, 250, 63, 16, 4, 1 and 0.25 µM and data is colour coded for ease of interpretation.

Structure (SMILES)	Activity (Minimum Inhibitory Concentration, MIC) [µM]
CSCC[C@@H]1NC(=O)CNC(=O)[C@H]([C@@H](C)O)NC(=O)[C@@H]2CCCN2C(=O)[C@H](CCSC)NC(=O)CNC(=O)[C@@H](CC(N)=O)NC(=O)[C@H](CC(N)=O)NC(=O)[C@H](Cc2ccc(O)cc2)NC(=O)[C@H](C(C)C)NC(=O)[C@H](CCCNC(=N)N)NC(=O)[C@@H](NC(=O)[C@H](CCCNC(=N)N)NC(=O)[C@H](Cc2c[nH]cn2)NC(=O)[C@H](CCCCN)NC(=O)[C@H](CCCCN)NC(=O)[C@H](CCCNC(=N)N)NC(=O)[C@@H](N)CCCCN)CSSC[C@@H](C(=O)O)NC(=O)[C@H](Cc2c[nH]c3ccccc23)NC(=O)[C@H](CCCNC(=N)N)NC(=O)[C@H](Cc2ccc(O)cc2)NC1=O [N12Nd] (H-KRKKHRCRVYN[dN]GMPTGMYRWC-OH; disulfide 7-22; N-terminus assumed)	4
CSCC[C@@H]1NC(=O)CNC(=O)[C@H](CC(N)=O)NC(=O)[C@H](CC(N)=O)NC(=O)[C@H](Cc2ccc(O)cc2)NC(=O)[C@H](C(C)C)NC(=O)[C@H](CCCNC(=N)N)NC(=O)[C@@H](NC(=O)[C@H](CCCNC(=N)N)NC(=O)[C@H](Cc2c[nH]cn2)NC(=O)[C@H](CCCCN)NC(=O)[C@H](CCCCN)NC(=O)[C@H](CCCNC(=N)N)NC(=O)[C@@H](N)CCCCN)CSSC[C@@H](C(=O)O)NC(=O)[C@H](Cc2c[nH]c3ccccc23)NC(=O)[C@H](CCCNC(=N)N)NC(=O)[C@H](Cc2ccc(O)cc2)NC(=O)[C@@H](CCSC)NC(=O)CNC(=O)[C@H]([C@@H](C)O)NC(=O)[C@@H]2CCCN2C1=O [M18Md] (H-KRKKHRCRVYNNGMPTG[dM]YRWC-OH; disulfide 7-22; N-terminus assumed)	16
CSCC[C@@H]1NC(=O)CNC(=O)[C@H]([C@@H](C)O)NC(=O)[C@@H]2CCCN2C(=O)[C@H](CCSC)NC(=O)CNC(=O)[C@H](CC(N)=O)NC(=O)[C@H](CC(N)=O)NC(=O)[C@H](Cc2ccc(O)cc2)NC(=O)[C@H](C(C)C)NC(=O)[C@H](CCCNC(=N)N)NC(=O)[C@@H](NC(=O)[C@@H](N)CCCNC(=N)N)CSSC[C@@H](C(=O)O)NC(=O)[C@H](Cc2c[nH]c3ccccc23)NC(=O)[C@H](CCCNC(=N)N)NC(=O)[C@H](Cc2ccc(O)cc2)NC1=O [R6-C22] (H-RCRVYNNGMPTGMYRWC-OH; disulfide 2-17; N-terminus assumed)	63
CSCC[C@@H]1NC(=O)CNC(=O)[C@H](CC(N)=O)NC(=O)[C@H](CC(N)=O)NC(=O)[C@H](Cc2ccc(O)cc2)NC(=O)[C@H](C(C)C)NC(=O)[C@H](CCCNC(=N)N)NC(=O)[C@@H](NC(=O)[C@H](CCCNC(=N)N)NC(=O)[C@H](Cc2c[nH]cn2)NC(=O)[C@H](CCCCN)NC(=O)[C@H](CCCCN)NC(=O)[C@H](CCCNC(=N)N)NC(=O)[C@@H](N)CCCCN)CSSC[C@@H](C(=O)O)NC(=O)[C@H](Cc2c[nH]c3ccccc23)NC(=O)[C@H](CCCNC(=N)N)NC(=O)[C@H](Cc2ccc(O)cc2)NC(=O)[C@H](C)NC(=O)CNC(=O)[C@H]([C@@H](C)O)NC(=O)[C@@H]2CCCN2C1=O [M18A] (H-KRKKHRCRVYNNGMPTGAYRWC-OH; disulfide 7-22)	1
CSCC[C@@H]1NC(=O)CNC(=O)[C@H]([C@@H](C)O)NC(=O)[C@@H]2CCCN2C(=O)[C@H](CCSC)NC(=O)CNC(=O)[C@H](CC(N)=O)NC(=O)[C@H](CC(N)=O)NC(=O)[C@H](Cc2ccc(O)cc2)NC(=O)[C@H](C(C)C)NC(=O)[C@H](CCCNC(=N)N)NC(=O)[C@@H](NC(=O)[C@H](CCCNC(=N)N)NC(=O)[C@H](Cc2c[nH]cn2)NC(=O)[C@H](CCCCN)NC(=O)[C@H](CCCCN)NC(=O)[C@H](C)NC(=O)[C@@H](N)CCCCN)CSSC[C@@H](C(=O)O)NC(=O)[C@H](Cc2c[nH]c3ccccc23)NC(=O)[C@H](CCCNC(=N)N)NC(=O)[C@H](Cc2ccc(O)cc2)NC1=O [R2A] (H-KAKKHRCRVYNNGMPTGMYRWC-OH; disulfide 7-22)	1
CSCC[C@@H]1NC(=O)CNC(=O)[C@H]([C@@H](C)O)NC(=O)[C@@H]2CCCN2C(=O)[C@H](CCSC)NC(=O)CNC(=O)[C@H](CC(N)=O)NC(=O)[C@H](CC(N)=O)NC(=O)[C@H](Cc2ccc(O)cc2)NC(=O)[C@H](C(C)C)NC(=O)[C@H](CCCNC(=N)N)NC(=O)[C@@H](NC(=O)[C@H](CCCNC(=N)N)NC(=O)[C@H](Cc2c[nH]cn2)NC(=O)[C@H](C)NC(=O)[C@H](CCCCN)NC(=O)[C@H](CCCNC(=N)N)NC(=O)[C@@H](N)CCCCN)CSSC[C@@H](C(=O)O)NC(=O)[C@H](Cc2c[nH]c3ccccc23)NC(=O)[C@H](CCCNC(=N)N)NC(=O)[C@H](Cc2ccc(O)cc2)NC1=O [K4A] (H-KRKAHRCRVYNNGMPTGMYRWC-OH; disulfide 7-22)	1
CSCC[C@@H]1NC(=O)[C@H](C)NC(=O)[C@H]([C@@H](C)O)NC(=O)[C@@H]2CCCN2C(=O)[C@H](CCSC)NC(=O)CNC(=O)[C@H](CC(N)=O)NC(=O)[C@H](CC(N)=O)NC(=O)[C@H](Cc2ccc(O)cc2)NC(=O)[C@H](C(C)C)NC(=O)[C@H](CCCNC(=N)N)NC(=O)[C@@H](NC(=O)[C@H](CCCNC(=N)N)NC(=O)[C@H](Cc2c[nH]cn2)NC(=O)[C@H](CCCCN)NC(=O)[C@H](CCCCN)NC(=O)[C@H](CCCNC(=N)N)NC(=O)[C@@H](N)CCCCN)CSSC[C@@H](C(=O)O)NC(=O)[C@H](Cc2c[nH]c3ccccc23)NC(=O)[C@H](CCCNC(=N)N)NC(=O)[C@H](Cc2ccc(O)cc2)NC1=O [G17A] (H-KRKKHRCRVYNNGMPTAMYRWC-OH; disulfide 7-22)	4

More lines, now with the values ahead:

Activity (Minimum Inhibitory Concentration, MIC) [µM]	Structure (SMILES)
1	CSCC[C@@H]1NC(=O)CNC(=O)[C@H]([C@@H](C)O)NC(=O)[C@@H]2CCCN2C(=O)[C@H](CCSC)NC(=O)CNC(=O)[C@H](CC(N)=O)NC(=O)[C@H](CC(N)=O)NC(=O)[C@H](Cc2ccc(O)cc2)NC(=O)[C@H](C(C)C)NC(=O)[C@H](C)NC(=O)[C@@H](NC(=O)[C@H](CCCNC(=N)N)NC(=O)[C@H](Cc2c[nH]cn2)NC(=O)[C@H](CCCCN)NC(=O)[C@H](CCCCN)NC(=O)[C@H](CCCNC(=N)N)NC(=O)[C@@H](N)CCCCN)CSSC[C@@H](C(=O)O)NC(=O)[C@H](Cc2c[nH]c3ccccc23)NC(=O)[C@H](CCCNC(=N)N)NC(=O)[C@H](Cc2ccc(O)cc2)NC1=O [R8A] (H-KRKKHRCAVYNNGMPTGMYRWC-OH; disulfide 7-22)
4	CSCC[C@@H]1NC(=O)CNC(=O)[C@H]([C@@H](C)O)NC(=O)[C@@H]2CCCN2C(=O)[C@H](CCSC)NC(=O)CNC(=O)[C@H](CC(N)=O)NC(=O)[C@H](CC(N)=O)NC(=O)[C@H](Cc2ccc(O)cc2)NC(=O)[C@H](C(C)C)NC(=O)[C@H](CCCNC(=N)N)NC(=O)[C@@H](NC(=O)[C@H](CCCNC(=N)N)NC(=O)[C@H](Cc2c[nH]cn2)NC(=O)[C@H](CCCCN)NC(=O)[C@H](CCCCN)NC(=O)[C@H](CCCNC(=N)N)NC(=O)[C@@H](N)CCCCN)CSSC[C@@H](C(=O)O)NC(=O)[C@@H](Cc2c[nH]c3ccccc23)NC(=O)[C@H](CCCNC(=N)N)NC(=O)[C@H](Cc2ccc(O)cc2)NC1=O [W21Wd] (H-KRKKHRCRVYNNGMPTGMYR[dW]C-OH; disulfide 7-22; N-terminus assumed)
63	CSCC[C@@H]1NC(=O)CNC(=O)[C@H]([C@@H](C)O)NC(=O)[C@@H]2CCCN2C(=O)[C@H](CCSC)NC(=O)CNC(=O)[C@H](CC(N)=O)NC(=O)[C@H](CC(N)=O)NC(=O)[C@H](Cc2ccc(O)cc2)NC(=O)[C@@H](C(C)C)NC(=O)[C@H](CCCNC(=N)N)NC(=O)[C@@H](NC(=O)[C@H](CCCNC(=N)N)NC(=O)[C@H](Cc2c[nH]cn2)NC(=O)[C@H](CCCCN)NC(=O)[C@H](CCCCN)NC(=O)[C@H](CCCNC(=N)N)NC(=O)[C@@H](N)CCCCN)CSSC[C@@H](C(=O)O)NC(=O)[C@H](Cc2c[nH]c3ccccc23)NC(=O)[C@H](CCCNC(=N)N)NC(=O)[C@H](Cc2ccc(O)cc2)NC1=O [V9Vd] (H-KRKKHRCR[dV]YNNGMPTGMYRWC-OH; disulfide 7-22; N-terminus assumed)
1	CSCC[C@@H]1NC(=O)CNC(=O)[C@H]([C@@H](C)O)NC(=O)[C@@H]2CCCN2C(=O)[C@H](CCSC)NC(=O)CNC(=O)[C@H](CC(N)=O)NC(=O)[C@H](CC(N)=O)NC(=O)[C@H](Cc2ccc(O)cc2)NC(=O)[C@H](C(C)C)NC(=O)[C@H](CCCNC(=N)N)NC(=O)[C@@H](NC(=O)[C@H](CCCNC(=N)N)NC(=O)[C@H](Cc2c[nH]cn2)NC(=O)[C@H](CCCCN)NC(=O)[C@H](CCCCN)NC(=O)[C@H](CCCNC(=N)N)NC(=O)[C@@H](N)CCCCN)CSSC[C@@H](C(=O)O)NC(=O)[C@H](Cc2c[nH]c3ccccc23)NC(=O)[C@H](C)NC(=O)[C@H](Cc2ccc(O)cc2)NC1=O [R20A] (H-KRKKHRCRVYNNGMPTGMYAWC-OH; disulfide 7-22)
1	CSCC[C@@H]1NC(=O)CNC(=O)[C@H]([C@@H](C)O)NC(=O)[C@@H]2CCCN2C(=O)[C@H](CCSC)NC(=O)CNC(=O)[C@H](CC(N)=O)NC(=O)[C@H](CC(N)=O)NC(=O)[C@H](Cc2ccc(O)cc2)NC(=O)[C@H](C(C)C)NC(=O)[C@H](CCCNC(=N)N)NC(=O)[C@@H](NC(=O)[C@H](CCCNC(=N)N)NC(=O)[C@H](Cc2c[nH]cn2)NC(=O)[C@H](CCCCN)NC(=O)[C@H](CCCCN)NC(=O)[C@H](CCCNC(=N)N)NC(=O)[C@@H](N)CCCCN)CSSC[C@@H](C(=O)O)NC(=O)[C@H](C)NC(=O)[C@H](CCCNC(=N)N)NC(=O)[C@H](Cc2ccc(O)cc2)NC1=O [W21A] (H-KRKKHRCRVYNNGMPTGMYRAC-OH; disulfide 7-22)

Same assay, conditions: S. aureus DPC5246, agar well diffusion MIC

Structure (SMILES)	fold reduction in activity compared with bactofencin A (wild type) [fold]
CSCC[C@@H]1NC(=O)CNC(=O)[C@H]([C@@H](C)O)NC(=O)[C@@H]2CCCN2C(=O)[C@H](CCSC)NC(=O)CNC(=O)[C@H](CC(N)=O)NC(=O)[C@H](CC(N)=O)NC(=O)[C@H](Cc2ccc(O)cc2)NC(=O)[C@@H](C(C)C)NC(=O)[C@H](CCCNC(=N)N)NC(=O)[C@@H](NC(=O)[C@H](CCCNC(=N)N)NC(=O)[C@H](Cc2c[nH]cn2)NC(=O)[C@H](CCCCN)NC(=O)[C@H](CCCCN)NC(=O)[C@H](CCCNC(=N)N)NC(=O)[C@@H](N)CCCCN)CSSC[C@@H](C(=O)O)NC(=O)[C@H](Cc2c[nH]c3ccccc23)NC(=O)[C@H](CCCNC(=N)N)NC(=O)[C@H](Cc2ccc(O)cc2)NC1=O [V9Vd] (H-KRKKHRCR[dV]YNNGMPTGMYRWC-OH; disulfide 7-22; N-terminus assumed)	63

— article PMC6081437, “The potency of the broad spectrum bacteriocin, bactofencin A, against staphylococci is highly dependent on primary structure, N-terminal charge and disulphide formation” (Scientific Reports, 2018)
